Reference: US8575170B2, “Flurbiprofen analogs and methods of use in treating cancer” (The Regents of the Unversity of Colorado, a body corporate, priority 2010, dated 2013)
Read-outs that look alike come from different tables or passages of the source.

What was measured:
Format in all cases: cell-based
H3255 = test: MTT cell viability, H3255; conditions: Adenocarcinoma lung cell line H3255, 4 days incubation
Description: (§1) The ability of the flurbiprofen analog compounds of the invention to inhibit cancer cell growth and survival (viability) in a variety of cancer lines was examined in a standard MTT assay for cell viability, as detailed in Example 2.
(§2) The studies reported in Tables 1-3 above were carried out by incubating the cells in the test compound for four days, under standard cell-culture conditions, and measuring cell survival on day 5 (see Example 2).
(§3) Cell growth and survival following treatment with N—[(S)-2-Fluoro-α-methyl-4-biphenylacetyl]-[L-(4-phenylphenyl)alanine]-N-(2,2,6,6-tetramethyl-4-piperidinyl)amide (GCBH-110=B1031; (S)-Fmba-L-Bip-Atmp) were measured by a rapid colorimetric assay based on the tetrazolium salt MTT (3-(4,5-dimethylthiazol-2-yl)-2,5-diphenyl tetrazolium bromide) (Mosmann, J. Immunol. Methods 65: 55-63, 1983, with minor modifications).
(§4) Briefly, approximately 1,000-5,000 cancer cells from 15 different cancer cells lines were plated in 100 μL of growth medium in 96-well flat-bottomed microtiter plates. Cells were incubated overnight to allow recovery. Compounds to be tested were added to the cells in triplicate in a range of concentrations and the cells were incubated at 37° C., 5% CO2, with 100% humidity. Control cells were treated in the same way without antagonists. […] Absorbance was immediately determined using a scanning multiwell plate reader.

H1435a = test: MTT cell viability, H1435a; conditions: 96 h; Adenocarcinoma lung cell line H1435a; 4 days incubation
Description: as §1, §2, §3, §4

H1264 = test: MTT cell viability, H1264; conditions: 96 h; Adenosquamous lung cell line H1264; 4 days incubation
Description: as §1, §2, §3, §4

H460 = test: MTT cell viability, H460; conditions: Homo sapiens, NCI-H460, 96 h; Large Cell lung cell line H460; 4 days incubation
Description: as §1, §2, §3, §4

H460b = test: MTT cell viability, H460b; conditions: 96 h; Large Cell lung cell line H460b; 4 days incubation
Description: as §1, §2, §3, §4

H226 = test: MTT cell viability, H226; conditions: Homo sapiens, NCI-H226, 96 h; Squamous Mesothelioma lung cell line H226; 4 days incubation
Description: as §1, §2, §3, §4

SHP77 = test: MTT cell viability, SHP77; conditions: SCLC lung cell line SHP77, 4 days incubation
Description: as §1, §2, §3, §4

H1648 = test: MTT cell viability, H1648; conditions: Homo sapiens, NCI-H1648, 96 h; SCLC lung cell line H1648; 4 days incubation
Description: as §1, §2, §3, §4

UMSCC22A = test: MTT cell viability, UMSCC22A; conditions: Head and neck cancer cell line UMSCC22A
Description: as §1
(§5) A similar study was conducted on 14 […] cancer cell lines, identified in Table 2.
as §3
(§6) Briefly, approximately 1,000-5,000 cancer cells from 15 different cancer cells lines were plated in 100 μL of growth medium in 96-well flat-bottomed microtiter plates. Cells were incubated overnight to allow recovery. Compounds to be tested were added to the cells in triplicate in a range of concentrations and the cells were incubated at 37° C., 5% CO2, with 100% humidity. Control cells were treated in the same way without antagonists. […] Plates were incubated for 4 days, allowing sufficient time for cell replication and compound-induced cell death to occur. […] Absorbance was immediately determined using a scanning multiwell plate reader. […]

HN31 = test: MTT cell viability, HN31; conditions: Head and neck cancer cell line HN31
Description: as §1, §5, §3, §6

UMSCC19 = test: MTT cell viability, UMSCC19; conditions: Head and neck cancer cell line UMSCC19
Description: as §1, §5, §3, §6

Aspc-1 = test: MTT cell viability, Aspc-1; conditions: Homo sapiens, ASPC1, 96 h; Pancreatic cancer cells Aspc-1; 4 days incubation
From the text: as §1
(§7) Similar results were obtained for the effect of the B1031 compound on the 14 pancreatic tumor cells lines shown in Table 3 below, where the dose dependent effect of the compound on survival of the pancreatic cancer cell lines is shown in FIG. 5.
as §2, §3
(§8) Briefly, approximately 1,000-5,000 cancer cells from 15 different cancer cells lines were plated in 100 μL of growth medium in 96-well flat-bottomed microtiter plates. Cells were incubated overnight to allow recovery. […] Absorbance was immediately determined using a scanning multiwell plate reader.

Panc-1005 = test: MTT cell viability, Panc-1005; conditions: Homo sapiens, Panc1005, 96 h; Pancreatic cancer cells Panc-1005; 4 days incubation
From the text: as §1, §7, §2, §3, §8

L35 = test: MTT cell viability, L35; conditions: Pancreatic cancer cell, 96 h; Pancreatic cancer cells L35; 4 days incubation
From the text: as §1, §7, §2, §3, §8

lung cancer cell lines = test: MTT cell viability, panel of lung cancer cell lines
From the text: as §1
In one group of studies, the effect of compound B1031 (compound GCBH-110 above) on a variety of lung cancer cells lines identified in Tables 1A-1C was investigated FIGS. 1 and 2 are dose-response curves, showing the change in percent survival as a function of compound concentration, after four days incubation in the presence of the compound for the various cell lines tested (identified in Tables 1A-1C below). […] The 12 cell lines shown in Table 1A are all adenocarcinoma lines, a type of non-small cell lung carcinoma; the 11 cell lines shown in Table 1B, identified as adenosquamous, large cell, mesothelioma, squamous, and squaous mesothelioma, are non-small cell lung carcinoma lines; and the 7 cell lines shown in Table 1C are all small-cell lung carcinoma cell lines.
as §3
Briefly, approximately 1,000-5,000 cancer cells from 15 different cancer cells lines were plated in 100 μL of growth medium in 96-well flat-bottomed microtiter plates. Cells were incubated overnight to allow recovery. Compounds to be tested were added to the cells in triplicate in a range of concentrations and the cells were incubated at 37° C., 5% CO2, with 100% humidity. Control cells were treated in the same way without antagonists. […] Plates were incubated for 4 days, allowing sufficient time for cell replication and compound-induced cell death to occur. On day 5, 25 μL of a 2 mg/mL solution of MTT (Sigma) dissolved in RMPI-1640 was added to each well. The plate was incubated for 4 h at 37° C. The supernatant liquid was removed and the blue formazan complex was dissolved by adding 100 μL of 0.02 N HCl in 75% isopropanol to all wells. Absorbance was immediately determined using a scanning multiwell plate reader.
Similarly, cell growth and survival following treatment with GCBH-110=B1031 was tested using the same MTT assay in 17 lung cancer cell lines. GCBH-110=B1031 caused 50% cell death at concentrations between about 0.1 μM and about 2 μM under these conditions (FIG. 2).

IC50 (H3255; listed as B1031): 900 nM
IC50 (H3255; Homo sapiens, NCI-H3255, 96 h): 910 nM
IC50 (H1435a): 110 nM
IC50 (H1264): 630 nM
IC50 (H460): 480 nM
IC50 (H460b): 400 nM
IC50 (H226): 203 nM
IC50 (H1648): 280 nM
IC50 (Aspc-1): 500 nM
IC50 (Panc-1005): 700 nM
IC50 (lung cancer cell lines; most of the lung cancer cell lines of Tables 1A-1C, read-out: IC50 value, most cell lines): < 500 nM
IC50 (lung cancer cell lines; span over the 32 lung cancer cell lines of Tables 1A-1C, read-out: IC50 values): 100 to 1800 nM
IC50 fold lower than flurbiprofen (anti-cancer activity relative to flurbiprofen) (lung cancer cell lines; variety of lung carcinoma cells, FIG. 9): about 1000 fold
Structure (SMILES): C[C@H](C(=O)N[C@@H](Cc1ccc(-c2ccccc2)cc1)C(=O)NC1CC(C)(C)NC(C)(C)C1)c1ccc(-c2ccccc2)c(F)c1 [GCBH-110, N—[(S)-2-Fluoro-α-methyl-4-biphenylacetyl]-[L-(4-phenylphenyl)alanine]-N-(2,2,6,6-tetramethyl-4-piperidinyl)amide]
IC50 (SHP77; Homo sapiens, SHP77, 96 h): 500 nM
IC50 (SHP77; listed as B1031): 530 nM
IC50 (UMSCC22A): 430 nM
IC50 (HN31): 540 nM
IC50 (UMSCC19): 2000 nM
IC50 (L35): 800 nM
IC50 (lung cancer cell lines; 17 lung cancer cell lines, FIG. 2, read-out: concentrations causing 50% cell death): 100 to 2000 nM
IC50 (lung cancer cell lines; 96 h, FIGS. 1 and 2, four days incubation, read-out: compound concentrations effective to produce 50% cell death): 100 to 2000 nM
